Test [1] has as its system Trichomonas vaginalis. As to the kind of experiment: Antimicrobial activity against Trichomonas vaginalis. It counts as functional, organism-based.
Test [2] relates to Giardia intestinalis. As to the kind of experiment: Antimicrobial activity against Giardia intestinalis. It counts as functional, organism-based, Giardia duodenalis. The settings on record: for IC50: Giardia duodenalis.
Where [3] appears, read: Trichomonas vaginalis, read-out: pIC50 (converted).
The mark [4] stands for this setting: Trichomonas vaginalis, read-out: IC50.

What is called pIC50 is −log10 of the IC50, conventionally taken in molar units. Higher therefore signals a low IC50.

With `FC(F)(F)c1nc2cc(Br)ccc2[nH]1`, the pIC50 in test [1] is 5.8; in test [2], 6.19. In addition, the IC50 is 1580 nM in test [1] (setting [3]) and 646 nM in test [2] (read-out: pIC50 (converted)).

Take `O=[N+]([O-])c1ccc(CCSc2nc3c(Br)cc(Br)cc3[nH]2)cc1`: the pIC50 in test [1] is reported as 8.48; in test [2], 7.43. Besides, the IC50 is 3 nM in test [1] (setting [4]), 3.31 nM in test [1] (setting [3]) and 37.2 nM in test [2] (read-out: pIC50 (converted)).

Regarding `CN(C)CCCSc1nc2c(Br)cc(Br)cc2[nH]1`, the values for the pIC50 in test [1] and in test [2] were 7.99 and 7.69, respectively. Moreover, the IC50 was 11 nM in test [1] (setting [4]), 10.2 nM in test [1] (setting [3]), 20 nM in test [2] (read-out: IC50) and 20.4 nM in test [2] (read-out: pIC50 (converted)).

For the molecule `OCCSc1nc2c(Br)cc(Br)cc2[nH]1`, the pIC50 in test [1] came to 6.83; in test [2], 6.98. Besides, the IC50 in test [1] (setting [3]) was 148 nM; in test [2] (read-out: pIC50 (converted)), 105 nM.

As for `O=[N+]([O-])c1ccc(CCSc2nc3c(Cl)cc(Cl)cc3[nH]2)cc1`, the pIC50 is recorded as 7.96 in test [1] and 7.09 in test [2]. The IC50 in test [1] (setting [4]) is 10 nM; in test [1] (setting [3]) it was 11 nM; in test [2] (read-out: pIC50 (converted)), 81.3 nM.

Take `Clc1cc(Cl)c2nc(SCCN3CCCCC3)[nH]c2c1`: the results for the pIC50 in test [1] and in test [2] were 7.14 and 7.26, respectively. Besides, the IC50 in test [1] (setting [3]) was 72.4 nM; in test [2] (read-out: pIC50 (converted)) it was 55 nM.

On to `FC(F)(F)c1nc2c(Br)cc(Br)cc2[nH]1`, for which the pIC50 in test [1] was 6.72; in test [2] it was 6.6. The IC50 in test [1] (setting [3]) is 191 nM; in test [2] (read-out: pIC50 (converted)), 251 nM.

Take `CN(C)CCCSc1nc2c(Cl)cc(Cl)cc2[nH]1`: the pIC50 in test [1] is 7.07; in test [2], 7.14. In addition, the IC50 in test [1] (setting [4]) was 85 nM; in test [1] (setting [3]), 85.1 nM; in test [2] (read-out: IC50), 72 nM; in test [2] (read-out: pIC50 (converted)) it was 72.4 nM.

As to `FC(F)(F)c1nc2c(Br)c(Br)c(Br)cc2[nH]1`, the pIC50 in test [1] was 6.57; in test [2], 6.85. For the same molecule, the IC50 in test [1] (setting [4]) was 270 nM; in test [1] (setting [3]) it was 269 nM; in test [1] (read-out: IC50), 270 nM; in test [2] (read-out: pIC50 (converted)), 141 nM.

For the molecule `CN(C)CCSc1nc2c(Cl)cc(Cl)cc2[nH]1`, the pIC50 in test [2] turned out to be 7.68. Moreover, in test [2] (read-out: pIC50 (converted)), the IC50 was 20.9 nM.

For the molecule `Clc1cc(Cl)c2nc(SCCN3CCOCC3)[nH]c2c1`, the pIC50 in test [1] came out at 7.29; in test [2], 7.41. For the same molecule, the values for the IC50 in test [1] (setting [3]) and in test [2] (read-out: pIC50 (converted)) were 51.3 nM and 38.9 nM, respectively.

Turning to `O=C(c1ccccc1)c1ccc2[nH]c(C(F)(F)F)nc2c1`, the values for the pIC50 in test [1] and in test [2] were 4.55 and 5.64, respectively. Also, the IC50 in test [1] (setting [4]) was 28400 nM; in test [1] (setting [3]), 28200 nM; in test [2] (read-out: IC50), 2310 nM; in test [2] (read-out: pIC50 (converted)), 2290 nM.

Take `Brc1cc(Br)c2nc(SCCN3CCCCC3)[nH]c2c1`: the pIC50 in test [1] is 7.69; in test [2] it was 6.9. Besides, the IC50 in test [1] (setting [3]) is 20.4 nM; in test [2] (read-out: pIC50 (converted)), 126 nM.

In the case of `CCN(CC)CCSc1nc2c(Cl)cc(Cl)cc2[nH]1`, the pIC50 turned out to be 7.39 in test [1] and 7.72 in test [2]. The IC50 in test [1] (setting [3]) is 40.7 nM; in test [2] (read-out: pIC50 (converted)), 19.1 nM.

Consider `Brc1cc(Br)c2nc(SCCN3CCOCC3)[nH]c2c1`, for which the pIC50 in test [1] and in test [2] was 7.23 in each case. Further, the IC50 in test [1] (setting [3]) and in test [2] (read-out: pIC50 (converted)) was 58.9 nM each time.

In the case of `OCCSc1nc2c(Cl)cc(Cl)cc2[nH]1`, the results for the pIC50 in test [1] and in test [2] were 6.16 and 7.42, respectively. In addition, the IC50 in test [1] (setting [3]) was 692 nM; in test [2] (read-out: pIC50 (converted)), 38 nM.

Consider `CCN(CC)CCSc1nc2c(Br)cc(Br)cc2[nH]1`, for which the values for the pIC50 in test [1] and in test [2] were 7.53 and 7.46, respectively. The IC50 in test [1] (setting [4]) was 29 nM; in test [1] (setting [3]), 29.5 nM; in test [2] (read-out: pIC50 (converted)) it was 34.7 nM.

On to `CCCSc1ccc2[nH]c(C(F)(F)F)nc2c1`, for which the pIC50 in test [1] turned out to be 6.46; in test [2], 5.82. Further, the IC50 was 347 nM in test [1] (setting [3]) and 1510 nM in test [2] (read-out: pIC50 (converted)).

With `CN(C)CCSc1nc2c(Br)cc(Br)cc2[nH]1`, the values for the pIC50 in test [1] and in test [2] were 6.51 and 7.54, respectively. Further, the IC50 in test [1] (setting [3]) was 309 nM; in test [2] (read-out: pIC50 (converted)), 28.8 nM.

(Values after ChEMBL document CHEMBL3217580, “Structureactivity relationships of benzimidazole derivatives as antiparasitic agents: Dual activity-difference (DAD) maps” (Medchemcomm, 2011).)
